Reference: patent US8962655B2, “Composition for treatment of undifferentiated gastric cancer” (Eisai R&D Management Co., Ltd., priority 2007, dated 2015)

Columns and labels:
Format in all cases: in vivo
[1] = system: human scirrhous gastric cancer cell line (HSC-39); test: Combination use with 5-fluorouracil in subcutaneous transplanted (xenograft) models of HSC-39; settings: HSC-39 xenograft, nude mice
Description: (§1) Human scirrhous gastric cancer cell line HSC-39 (purchased from Immuno-Biological Laboratories Co., Ltd.) was cultured in RPMI1640 (containing 10% FBS) in a 5% carbon dioxide gas incubator at 37° C. to about 80% confluence, and then the cells were collected with trypsin-EDTA. A 5×10^7 cells/mL suspension was prepared with a phosphate buffer, and each 0.1 mL of the resulting cell suspension was subcutaneously transplanted to nude mice at the side of their bodies. Thirteen days after the transplantation, 4-(3-chloro-4-(cyclopropylaminocarbonyl)aminophenoxy)-7-methoxy-6-quinolinecarboxamide (3, 10 or 30 mg/kg, once a day for four weeks, oral) and 5-fluorouracil (Kyowa Hakko) (50 mg/kg, every four days for three times, intravenous) were administered alone or in combination. The major and minor axes of tumors were measured with Digimatic caliper (Mitsutoyo Corporation), and tumor volumes and relative tumor volumes were calculated according to the following formulae: […]

[2] = system: human scirrhous gastric cancer cell line (HSC-39); test: Combination use with paclitaxel in subcutaneous transplanted (xenograft) models of HSC-39; settings: HSC-39 xenograft, nude mice
Description: as §1, with “Eleven” for “Thirteen”, “paclitaxel (Calbiochem) (14” for “5-fluorouracil (Kyowa Hakko) (50”, “once a day” for “every four days”, “five days,” for “three times,”

[3] = system: human scirrhous gastric cancer cell line (HSC-39); test: Combination use with irinotecan hydrochloride in subcutaneous transplanted (xenograft) models of HSC-39; settings: once a day for four weeks, oral, HSC-39 xenograft, nude mice
Description: Human scirrhous gastric cancer cell line HSC-39 (purchased from Immuno-Biological Laboratories Co,. Ltd.) was cultured in RPMI1640 (containing 10% FBS) in a 5% carbon dioxide gas incubator at 37° C. to about 80% confluence, and then the cells were collected with trypsin-EDTA. A 5×10^7 cells/mL suspension was prepared with a phosphate buffer, and each 0.1 mL of the resulting cell suspension was subcutaneously transplanted to nude mice at the side of their bodies.
Twelve days after the transplantation, 4-(3-chloro-4-(cyclopropylaminocarbonyl)aminophenoxy)-7-methoxy-6-quinolinecarboxamide (3, 10 or 30 mg/kg, once a day for four weeks, oral) and irinotecan hydrochloride (Daiichi Seiyaku) (100 mg/kg, every four days for three times, intravenous) were administered alone or in combination. The major and minor axes of tumors were measured with Digimatic caliper (Mitsutoyo Corporation), and tumor volumes and relative tumor volumes were calculated according to the following formulae: Tumor Volume (TV)=Major axis of tumor (mm)×(Minor axis of tumor)^2 (mm^2)/2 Relative Tumor Volume (RTV)=Tumor volume on measurement day/Tumor volume on the first administration day.

[4] = Compound A 3 mg/kg alone, once a day for four weeks, oral
[5] = Compound A 10 mg/kg alone, once a day for four weeks, oral
[6] = Compound A 30 mg/kg alone, once a day for four weeks, oral

In the case of `O=c1[nH]cc(F)c(=O)[nH]1` [5-Fluorouracil, 5-fluorouracil, reference compound], the “Relative tumor volume on Day 29 Average ± standard deviation” value ([1]; 5-fluorouracil 50 mg/kg alone, every four days for three times, intravenous) is reported as 5.16 ± 1.37.

In the case of `CC(=O)O[C@H]1C(=O)[C@@]2(C)[C@H]([C@H](OC(=O)c3ccccc3)[C@]3(O)C[C@H](OC(=O)[C@H](O)[C@@H](NC(=O)c4ccccc4)c4ccccc4)C(C)=C1C3(C)C)[C@]1(OC(C)=O)CO[C@@H]1C[C@@H]2O` [Paclitaxel, paclitaxel, reference compound], the “Relative tumor volume on Day 29 Average ± standard deviation” value ([2]; paclitaxel 14 mg/kg alone, once a day for five days, intravenous) is reported as 4.26 ± 2.06.

`COc1cc2nccc(Oc3ccc(NC(=O)NC4CC4)c(Cl)c3)c2cc1C(N)=O` [Compound A, 4-(3-chloro-4-(cyclopropylaminocarbonyl)aminophenoxy)-7-methoxy-6-quinolinecarboxamide] was tested, and the “Relative tumor volume on Day 29 Average ± standard deviation” value ([3]; Compound A 3 mg/kg alone) was 4.29 ± 1.51, the “Relative tumor volume on Day 29 Average ± standard deviation” value ([3]; Compound A 10 mg/kg alone) was 2.93 ± 1.55 and the “Relative tumor volume on Day 29 Average ± standard deviation” value ([3]; Compound A 30 mg/kg alone) was 1.76 ± 0.92. For the same compound, the “Relative tumor volume on Day 29 Average ± standard deviation” value [1, 4] was 4.16 ± 1.28, the “Relative tumor volume on Day 29 Average ± standard deviation” value [1, 5] was 3.73 ± 1.21 and the “Relative tumor volume on Day 29 Average ± standard deviation” value [1, 6] was 2.72 ± 1.33. The “Relative tumor volume on Day 29 Average ± standard deviation” value [2, 4] was 3.79 ± 1.43, the “Relative tumor volume on Day 29 Average ± standard deviation” value [2, 5] was 3.27 ± 1.26 and the “Relative tumor volume on Day 29 Average ± standard deviation” value [2, 6] was 1.69 ± 0.72.
